Source: patent US20260317319A1, “NOVEL ERGOLINES AND METHODS OF TREATING MOOD DISORDERS” (Gilgamesh Pharma Inc., priority 2023, published 2026)
Where two headings read alike, the source gives them in different places.

Columns and labels:
[1] = target: T1, 5-HT2B receptor (Homo sapiens, UniProt P41595); experiment: 5-HT2B receptor radioligand binding ([3H]LSD); conditions: read-out: 5-HT2B Receptor Ki
T1 construct: expressed in transfected cells; host or cells: HEK293, stably transfected

[2] = target: T1, 5-HT2B receptor; experiment: cell-based; assay type: cell-based; conditions: Ca2+ flux; for Emax: HEK293, agonist, HEK293, max dose, read-out: 5-HT2B % Act @ Max Dose
How it was run: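 FLIPR Tetra fluorescence read-out of calcium flux after compound addition. Receptor-expressing stable lines were used (HEK293 for 2A/2B; CHO with Gα15 for 1A), dye-loaded with Fluo-4 Direct and 2.5 mM final probenecid, 50 min at 37 °C.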

[3] = target: T2, 5-HT1A receptor (Homo sapiens, UniProt P08908); experiment: cell-based; conditions: agonist, Ca2+ flux; for Emax: CHO, CHO cells with Gα15, max dose, read-out: 5-HT1A % Act @ Max Dose
T2 construct: expressed in transfected cells; host or cells: CHO cells, stably transfected
T2 sequence (P08908 1-422): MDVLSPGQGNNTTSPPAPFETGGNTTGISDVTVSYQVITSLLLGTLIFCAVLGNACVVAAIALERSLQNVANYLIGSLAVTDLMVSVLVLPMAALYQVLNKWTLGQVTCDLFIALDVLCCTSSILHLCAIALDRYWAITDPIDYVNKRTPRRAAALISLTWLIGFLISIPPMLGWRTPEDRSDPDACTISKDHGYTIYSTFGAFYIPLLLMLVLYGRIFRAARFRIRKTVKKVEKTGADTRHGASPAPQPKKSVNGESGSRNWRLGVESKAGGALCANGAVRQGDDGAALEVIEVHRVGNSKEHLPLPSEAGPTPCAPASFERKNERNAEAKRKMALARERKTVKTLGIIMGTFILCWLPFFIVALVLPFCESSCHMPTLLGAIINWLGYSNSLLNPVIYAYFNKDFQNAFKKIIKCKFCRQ
How it was run: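 Receptor agonism was assessed as intracellular calcium mobilization in stably transfected cells, with CHO cells additionally carrying Gα15 for the 5-HT1A readout. Calcium was monitored with Fluo-4 Direct dye.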

[4] = in vitro; assay type: in vitro ADME, human; conditions: human, microsomes, HLM 0.50 mg/mL, NADPH 1 mM, 1 μM compound, pH 7.4, 37° C., 60 min
[5] = in vitro; assay type: in vitro ADME, mouse; conditions: mouse, microsomes, MLM (male CD-1) 0.50 mg/mL, NADPH 1 mM, 1 μM compound, pH 7.4, 37° C., 60 min
From the text: MLM Stability Pooled MLM from male CD-1 mice (BIOIVT M00501) were used.

[6] = in vitro; assay type: in vitro ADME, rat; conditions: rat, microsomes, RLM (male Sprague-Dawley) 0.50 mg/mL, NADPH 1 mM, 1 μM compound, pH 7.4, 37° C., 60 min
From the text: RLM Stability Pooled RLM from male Sprague-Dawley rats (Xenotech R1000) were used.

[7] = target: T3, 5-HT2C receptor (Homo sapiens, UniProt P28335); experiment: Ca2+ flux functional assay at 5-HT2C (WuXi 5-HT2C protocol); assay type: cell-based; set-up: expressed in transfected cells
T3 sequence (P28335 33-458): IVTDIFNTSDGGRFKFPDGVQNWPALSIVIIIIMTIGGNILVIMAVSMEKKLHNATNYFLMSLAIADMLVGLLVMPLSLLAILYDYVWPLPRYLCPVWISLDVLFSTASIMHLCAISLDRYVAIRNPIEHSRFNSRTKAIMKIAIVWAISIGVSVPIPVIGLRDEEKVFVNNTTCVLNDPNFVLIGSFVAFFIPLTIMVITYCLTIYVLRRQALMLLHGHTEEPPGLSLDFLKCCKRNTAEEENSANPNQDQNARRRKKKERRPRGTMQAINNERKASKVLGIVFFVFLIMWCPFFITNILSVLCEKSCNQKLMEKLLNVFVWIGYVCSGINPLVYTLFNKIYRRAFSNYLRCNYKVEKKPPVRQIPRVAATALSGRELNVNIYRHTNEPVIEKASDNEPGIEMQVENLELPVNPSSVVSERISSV
Method: Disclosed compounds were tested for agonist activity at several serotonin receptor subtypes (5-HT2A, […], 5-HT2C, and 5-HT1A) using Ca^2+ flux functional assays and the 5-HT1B receptor using a cAMP accumulation assay, with the results summarized in Table 4. […] Potent agonist activity was also observed at the other serotonin receptors tested, although the selectivity profile among the receptors varied across compounds. […] However, at the same time, the N-propyl compounds were more efficacious agonists at 5-HT2B than the corresponding N-methyl compounds. The selectivity of disclosed compounds for 5-HT2A over 5-HT2C and 5-HT1A was less predictable and varied widely across compounds. […] An azetidinyl amide substituent tended to increase potency at 5-HT1A relative to 5-HT2A.
Functional Assays at 5-HT2A, 5-HT2B, and 5-HT1A. Agonist activity at 5-HT2A, 5-HT2B, 5HT2C and 5-HT1A receptors was determined using a FLIPR Ca^2+ flux assay at WuXi AppTec (Hong Kong) Limited according to their standard protocols. Briefly, stably transfected cells expressing the receptor of interest and Gα15 in the case of 5-HT1A (HEK293 for 5-HT2A and 5-HT2B; CHO cells for 5-HT1A) were grown and plated in a 384 well plate and incubated at 37° C. and 5% CO2 overnight. A solution of 250 mM probenecid in 1 mL FLIPR assay buffer was prepared fresh. This was combined with a fluorescent dye (Fluo-4 Direct™) to make a final assay concentration of 2.5 mM. Compounds were diluted 1:3.16 for 10 points and 750 nL was added to a 384 well compound plate using ECHO along with 30 μL assay buffer. The fluorescent dye was then added to the assay plate along with assay buffer to a final volume of 40 μL. The cell plate was incubated for 50 min at 37° C. and 5% CO2 and placed into the FLIPR Tetra along with the compound plate. 10 μL of references and compounds were then transferred from the compound plate into the cell plate and the fluorescent signal was read.

[8] = target: T4, 5-HT2A receptor (Homo sapiens, UniProt P28223); experiment: biochemical; assay type: binding; set-up: expressed in transfected cells; host or cells: HEK293, stably transfected; conditions: [3H]ketanserin 1 nM; HEK293 stable cell line; 1 h, 25 °C
How it was run: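 Affinity was measured in radioligand binding experiments using [^3H]ketanserin as the labelled ligand, following methods adapted from published procedures.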

[9] = target: T4, 5-HT2A receptor; experiment: cell-based; assay type: cell-based; set-up: expressed in transfected cells; host or cells: HEK293, stably transfected; conditions: Ca2+ flux; for Emax: HEK293, agonist, HEK293, max dose, read-out: 5-HT2A % Act @ Max Dose
How it was run: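 FLIPR Ca2+ flux agonist assay using stably transfected HEK293 (5-HT2A, 5-HT2B) or CHO cells co-expressing Gα15 (5-HT1A). Cells loaded with Fluo-4 Direct plus 2.5 mM probenecid (final) for 50 min at 37 °C, then compound added and fluorescence read.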

[10] = target: T3, 5-HT2C receptor; experiment: cell-based; conditions: agonist, Ca2+ flux, Eurofins DiscoverX protocol; for Emax: max dose, read-out: 5-HT2C % Act @ Max Dose; for EC50: read-out: 5-HT2C EC50
[11] = target: T5, 5-HT1B receptor (Homo sapiens, UniProt P28222); experiment: cAMP accumulation functional assay at 5-HT1B; assay type: cell-based; conditions: agonist, cAMP accumulation, max dose; read-out: 5-HT1B % Act @ Max Dose
T5 construct: expressed in transfected cells
How it was run: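 Agonist activity measured as cAMP accumulation in cells stably transfected with human 5-HT1B. Cells incubated 60 min at RT, then detection reagent added for a further 60 min at RT before plate reading.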

[12] = target: T4, 5-HT2A receptor; experiment: cell-based; assay type: cell-based; conditions: agonist, beta-arrestin recruitment; for EC50: PathHunter, read-out: 5-HT2A Arrestin EC50; for Emax: max dose, read-out: 5-HT2A Arrestin % Act @ Max Dose
How it was run: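 PathHunter β-arrestin recruitment (enzyme fragment complementation): 5-HT2A fused to ProLink donor in cells co-expressing β-arrestin–β-galactosidase acceptor, seeded and held at 37° C before testing. Chemiluminescent read-out; agonist % activity = (sample RLU − vehicle)/(max control ligand − vehicle) × 100.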

[13] = system: C57BL/6 mice; experiment: Automated mouse head twitch response (HTR) assay (video tracking); assay type: in vivo; conditions: sc; for # HTR/20 min at Most Efficacious Dose: 20 min recording, at each compound's most efficacious dose (35*, 43*, 44*: suppressed below vehicle 14.5, dose is that of least suppression); for # HTR/20 min at Most Efficacious Dose / Peak HTR/min at Most Efficacious Dose: mean; for Most Efficacious Dose for # HTR/20 min: dose giving most HTR/20 min (35*, 43*, 44*: dose that resulted in the least suppression); for Peak HTR/min at Most Efficacious Dose: rate over 2-min bins, at each compound's most efficacious dose (35*, 43*, 44*: suppressed below vehicle 1.62, dose is that of least suppression)
Method: Disclosed compounds were tested for their ability to induce a head twitch response (HTR) in mice using an automated video tracking procedure, with the results summarized in Table 8 and FIG. 4.
Animals. Adult male C57BL/6 mice aged 8-10 weeks (Jackson Labs, Bar Harbor, ME; body weight 18-25 g) were used in this experiment. Animals were group housed under environmentally controlled temperatures and 12-hour light/dark cycles (lights on between 06:00-18:00 h), with ad libitum food and water. Mice were habituated to the facility for at least 5 days prior to testing. All animal procedures were approved by the local IACUC and conducted in accordance with the NIH Guide for the Care and Use of Laboratory Animals.
Procedure. Mice were administered one dose of the drug and immediately placed into a small open field for behavioral observation. High-speed video of animals' behavior was captured continuously for 20 min. Video recordings were imported into an image processing software, which detects multiple points of interest on each animal's body, including the left and right ear. HTR events were defined as periodic deviations of ear locations from temporally averaged ear locations. Predefined thresholds for magnitude and frequency of location deviations were used to filter HTR events from random head movements. The method was validated by comparing detected events with manual (human) observations and found to have an accuracy >95%. The total number of HTR events counted during the 20-min recording and the rate in HTR/min calculated over 2-min bins were determined for each animal at each dose.
Statistical Analysis. The data points shown are the mean±standard error of the mean (SEM).

[14] = read-out: Intrinsic clearance (Clint)

T4 sequence (P28223 whole entry): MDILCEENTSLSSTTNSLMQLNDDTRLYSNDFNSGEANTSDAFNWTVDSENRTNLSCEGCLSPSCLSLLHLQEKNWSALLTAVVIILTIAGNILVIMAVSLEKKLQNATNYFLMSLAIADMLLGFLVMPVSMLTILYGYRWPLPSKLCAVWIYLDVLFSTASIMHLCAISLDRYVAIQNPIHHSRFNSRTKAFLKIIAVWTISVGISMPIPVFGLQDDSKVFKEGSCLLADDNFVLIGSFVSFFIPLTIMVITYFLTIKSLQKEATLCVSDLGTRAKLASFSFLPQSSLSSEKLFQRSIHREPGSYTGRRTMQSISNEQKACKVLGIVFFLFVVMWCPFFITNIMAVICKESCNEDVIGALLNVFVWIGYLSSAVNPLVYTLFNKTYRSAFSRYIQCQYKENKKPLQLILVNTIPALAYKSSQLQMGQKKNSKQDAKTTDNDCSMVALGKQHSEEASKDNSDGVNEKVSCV
T1 sequence (P41595 whole entry): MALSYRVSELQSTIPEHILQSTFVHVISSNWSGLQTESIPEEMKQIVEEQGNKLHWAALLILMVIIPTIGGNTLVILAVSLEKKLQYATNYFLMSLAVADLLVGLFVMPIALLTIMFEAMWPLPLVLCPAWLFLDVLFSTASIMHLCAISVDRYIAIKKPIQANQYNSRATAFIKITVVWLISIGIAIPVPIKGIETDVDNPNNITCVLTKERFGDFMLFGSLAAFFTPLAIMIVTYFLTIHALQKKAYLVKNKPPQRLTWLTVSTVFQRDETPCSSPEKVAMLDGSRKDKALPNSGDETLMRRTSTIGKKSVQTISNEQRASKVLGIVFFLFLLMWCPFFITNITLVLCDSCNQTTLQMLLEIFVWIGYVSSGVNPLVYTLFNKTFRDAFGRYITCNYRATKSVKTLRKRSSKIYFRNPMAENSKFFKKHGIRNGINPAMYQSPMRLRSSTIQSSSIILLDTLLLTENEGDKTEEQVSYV
T5 sequence (P28222 whole entry): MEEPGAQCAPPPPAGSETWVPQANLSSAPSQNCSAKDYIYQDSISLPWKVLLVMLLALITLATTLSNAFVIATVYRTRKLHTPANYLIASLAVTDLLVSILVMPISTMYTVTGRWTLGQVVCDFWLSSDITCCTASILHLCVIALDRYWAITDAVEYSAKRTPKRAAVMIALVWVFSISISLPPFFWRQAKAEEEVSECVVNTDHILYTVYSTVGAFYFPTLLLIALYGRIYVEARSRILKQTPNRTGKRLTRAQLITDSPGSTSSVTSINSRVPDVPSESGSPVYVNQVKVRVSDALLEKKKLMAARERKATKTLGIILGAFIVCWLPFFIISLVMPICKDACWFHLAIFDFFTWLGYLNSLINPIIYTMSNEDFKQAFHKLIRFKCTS

Row | Structure (SMILES) | Ki [1] [nM] | Emax [2] [%] | Emax [3] [%] | Emax [9] [%] | Emax [10] [%] | EC50 [10] [nM] | Emax [11] [%] | EC50 [12] [nM] | Emax [12] [%] | # HTR/20 min at Most Efficacious Dose [13] [HTR/20 min] | Most Efficacious Dose for # HTR/20 min [13] | Peak HTR/min at Most Efficacious Dose [13] [HTR/min] | also measured
1 | CN(C)C(=O)[C@@H]1C=C2c3cccc4[nH]cc(c34)C[C@H]2N(Cc2ccccc2)C1 [Compound 102, (6aR,9R)-7-benzyl-N,N-dimethyl-4,6,6a,7,8,9-hexahydroindolo[4,3-fg]quinoline-9-carboxamide] | 170 | 5.86 | 90.1 | 65.2 |  |  |  |  |  |  |  |  | EC50 ([2]; agonist, HEK293): > 10000 nM; EC50 ([3]; CHO cells with Gα15): 26200 nM; microsomal CLint [4, 14]: 16.9 µL/min/mg; half-life ([4]; read-out: half-life (t1/2)): 82 min; microsomal CLint [5, 14]: 111 µL/min/mg; half-life ([5]; read-out: half-life (t1/2)): 12.5 min; microsomal CLint [6, 14]: 134 µL/min/mg; half-life ([6]; read-out: half-life (t1/2)): 10.3 min; EC50 [7]: 685 nM; Emax ([7]; agonist, tested using WuXi 5-HT2C protocol, max dose, read-out: 5-HT2C % Act @ Max Dose (* WuXi protocol)): 76.6%; Ki [8]: 10.8 nM; EC50 ([9]; agonist, HEK293): 155 nM
2 | CCC(CC)NC(=O)[C@@H]1C=C2c3cccc4[nH]c(Br)c(c34)C[C@H]2N(C)C1 [Compound 44, (6aR,9R)-5-bromo-N-(pentan-3-yl)-7-methyl-4,6,6a,7,8,9-hexahydroindolo[4,3-fg]quinoline-9-carboxamide] | 9.3 | 15.7 | 16.6 | 29.9 | 40 | 4930 | 68.5 | 1.71 | 40.7 | 4.38 | (1) mg/kg, sc | 0.93 | Most Efficacious Dose for Peak HTR/min ([13]; dose giving highest peak HTR/min (35*, 43*, 44*: dose that resulted in the least suppression)): (3.2) mg/kg, sc
3 | CC[C@@H](C)NC(=O)[C@@H]1C=C2c3cccc4[nH]c(Br)c(c34)C[C@H]2N(C)C1 [Compound 43, (6aR,9R)-5-bromo-N—((R)-sec-butyl)-7-methyl-4,6,6a,7,8,9-hexahydroindolo[4,3-fg]quinoline-9-carboxamide] | 9.46 | 1 | 6.3 | 39.3 | 3.13 | > 10000 | 83.8 | 2.23 | 51.8 | 6.5 | (0.1) mg/kg, sc | 1 | 
